Measurements as given in paper PMC8533176, “1,5-Benzodiazepin-2(3H)-ones: In Vitro Evaluation as Antiparkinsonian Agents” (Antioxidants, 2021).
Where two headings read alike, the source gives them in different places.

Tests used:
[1] = ABTS radical scavenging assay; format: biochemical; conditions: for IC50: 30-min incubation; for ABTS Assay TEAC50: Equivalent antioxidant capacity at Trolox 50 mM; for ABTS Assay TEAC100: Equivalent antioxidant capacity at Trolox 100 mM
Procedure: The mixture was stored in the dark at room temperature for 16 h. […] All the compounds tested were dissolved in EtOH. […] The degree of decolorization was calculated as the percentage reduction of absorbance. […] Trolox was used as a reference antioxidant.

[2] = Ferric reducing antioxidant power (FRAP) assay; format: biochemical; design: FRAP Assay Trolox Equivalents: unit not given here; conditions: for FRAP Assay Antioxidant Capacity (%) at 100 uM: compound at 100 uM; for FRAP Assay Antioxidant Capacity (%) at 200 uM: compound at 200 uM
Procedure: FRAP reagent was prepared by mixing 10 mL of 300 mM acetate buffer with 1 mL of 10 mM 2,4,6-tripyridyl-S-triazine (TPTZ) in HCl 40 mM and 1mL of FeCl3·6H2O 20 mM. […] Trolox was used as assay control.

[3] = Kinetic solubility by UV spectrometry; format: physicochemical; conditions: PBS 50 mM, aqueous buffer, kinetic from dmso stock
Procedure: A modified protocol was used from that described by Hoelke et al. for the determination of the kinetic solubility from DMSO compound solutions. A compound calibration curve (compound concentration vs UV absorption) was prepared for each compound with concentrations of 10, 20, 50, 100, and 200 µM. Each compound dilution was carried out by pipetting defined volumes of a 20 mM stock compound solution in DMSO into vials and adding PBS 50 mM to reach a final volume of 1 mL/well. The final amount of DMSO per well was 2%. For the lower compound concentrations, an additional volume of DMSO was added to each well to reach 2% DMSO. Then, 200 µL of each dilution was transferred to a new 96-well culture plate for the measurement of the UV-spectra. One well in each row was left without a compound as a blank, and its UV absorbance was used as an offset correction. The experiments were performed in duplicate.
In parallel, compound saturation solutions were reached and filtered from 20 mM compound stock in DMSO: 10 µL of a 20 mM stock solution was dispensed into 190 µL of PBS 10 mM. The solutions were mixed, shaken on a microplate shaker for two hours, and then 160 µL of each solution was filtered and transferred to a new well plate for UV absorption measurement.
Measurement of the UV-spectra was performed using a Varioskan microplate reader, and spectra were taken in the range of 270–600 nm. Spectral bandwidth was set to 5 nm, and the data pint interval was 10 nm. The experiments were carried out in triplicate.

SH-SY5Y cells [4] = experiment: Cytotoxicity, MTT assay, SH-SY5Y; format: cell-based; conditions: Homo sapiens, MTT, cytotoxicity, read-out: SH-SY5Y IC50
Procedure: (§1) All compounds tested were dissolved and eventually further diluted in dimethylsulfoxide (DMSO). After overnight incubation, the cells were treated with different compound concentrations (5, 10, 20, 50, 100, 150, 200 µM) in a final volume of 200 µL with four replicates each. […] Cell proliferation or viability was measured using the 3-(4,5-dimethylthiazol-2-yl)-2,5-diphenyl tetrazolium bromide (MTT) assay. The MTT assay was optimized taking into account the number of cells plated per well, to work in the linear part of the cell density vs. MTT absorbance calibration curve, which allows achieving a maximum absorbance in the range of 0.8–1.0 in each well at the end of the experiment. In addition to that, the number of cells seeded for each experiment was optimized in agreement with the time scale of the experiment.
(§2) After cell treatment, 20 µL of MTT (5 mg/mL) was added to each well, and the plate was incubated at 37 °C in the dark for 2 h. Supernatants were removed, and the formazan crystals were solubilized in DMSO (200 µL/well), under 10 min shaking at room temperature. The reduction of MTT was quantified by absorbance at 570 nm in a Varioskan microplate reader (Thermo Fisher Scientific, Vantaa, Finland). Effects of the test compounds on cell viability were calculated using cells treated with a vehicle as a control. For IC50 and LD50 calculations, the data were subjected to linear regression analysis, and the regression lines were plotted for the best fit. The IC50 (inhibition of cell viability) concentrations were calculated using the respective dose–response curves.

HepG2 cells = experiment: Cytotoxicity, MTT assay, HepG2; format: cell-based; conditions: Homo sapiens, HepG2; MTT, cytotoxicity; read-out: HepG2 IC50
Procedure: as §1, §2

SH-SY5Y cells [5] = experiment: LDH release under H2O2; format: cell-based, human; conditions: H2O2 250 µM 24 h; compounds 24 h before; Figure 9
[6] = Chemical reactivity with H2O2; format: physicochemical; conditions: H2O2 500 µM, 37 °C, 4 h, DMEM:F12 without cells
Procedure: In our case, before running the protection experiments under oxidative stress conditions, we carried out experiments to assess the potential reactivity of compounds 9, 11, 13, and 18 at four different concentrations (5, 10, 20, and 40 µM) with H2O2 500 µM at 37 °C for 4 h in DMEM:F12 (without phenol red, FBS, and cells). Curcumin was used as a control compound.

SH-SY5Y cells [7] = experiment: cells; format: cell-based, human; conditions: for EC50: MTT
SH-SY5Y cells [8] = experiment: Resazurin cell viability assay under H2O2; format: cell-based, human; conditions: 24-h incubation, resazurin
SH-SY5Y cells [9] = experiment: Neuroprotection in the 6-OHD neurotoxicity-induced model, MTT; format: cell-based, human; conditions: 6-OHD 250 µM 48 h; compounds 24 h before
SH-SY5Y cells [10] = experiment: Neuroprotection in the MPP+ neurotoxicity-induced model, MTT; format: cell-based, human; conditions: MPP+ 700 µM 48 h; compounds 24 h before
SH-SY5Y cells [11] = experiment: Intracellular ROS levels (DCFH2-DA); format: cell-based, human; conditions: 400 µM H2O2 4 h; compounds 24 h before
Procedure: Intracellular ROS levels were determined using dichlorofluorescein diacetate (DCFH2-DA) according to Wang et al.. DCFH2-DA is cleaved by intracellular esterases and is oxidized by ROS to form the fluorescent compound DCF, which represents the ROS level. Therefore, 3 × 10^3 SH-SY5Y cells were seeded in 96-well culture black clear bottom plates and after 24 h were treated with the test compound for an additional 24 h. Then, they were exposed to H2O2 for 4 h. After the incubation period, cells were washed twice with Hanks buffer and loaded with 20 µM DCFH2-DA (in FBS-free culture medium) for 40 min in dark at 37 °C in a CO2 incubator. At the end of the dye incubation period, they were washed twice with Hanks buffer to remove the extracellular DCFH2-DA. Fluorescence was measured with a Varioskan microplate reader at λex = 485 nm and λem = 535 nm wavelengths. Results are expressed as a percentage of the fluorescent increase compared with that of the control. All the experiments were performed at least three times in quadruplicate for each compound concentration.

SH-SY5Y cells [12] = experiment: Mitochondrial membrane potential (JC-1); format: cell-based, human; conditions: 400 µM H2O2 4 h; compounds 24 h before at different concentrations
Procedure: The fluorescent dye 5,5′,6,6′-tetrachloro-1,1′,3,3′-tetraethylbenzimidazolylcarbocyanine iodide (JC-1) was used for measuring MMP [89]. A decrease in fluorescence intensity represents mitochondrial membrane depolarization. For fluorescence ratio detection under oxidative stress conditions, 96-well culture black clear bottom plates were seeded with 3 × 10^3 SH-SY5Y cells, and after 24-h incubation, they were treated with the test compound and left out for 24 h. Then, the cells were exposed to different H2O2 concentrations for 4 h. After the incubation period, the cells were washed twice with Hanks buffer and then stained with 5 µM JC-1 in culture media in the dark in a CO2 incubator at 37 °C for 20 min. At the end of the dye incubation period, cells were washed three times with Hanks buffer, and 200 µL of fresh buffer was added. Cells were analyzed with a Varioskan microplate reader. J-aggregate red fluorescence intensity was measured at λex = 535 nm and λem = 595 nm, while λem = 485 nm and λem = 535 nm was used for J-monomer green fluorescence. Results were expressed as the ratio of fluorescence intensity of J-aggregates to J-monomers. All the experiments were performed three times in quadruplicate for each compound concentration.

SH-SY5Y cells [13] = experiment: Neuroprotection against H2O2-induced oxidative stress, MTT; conditions: H2O2 250 µM 24 h; compounds 5-50 µM 24 h before; Figure 8

Structure (SMILES) | IC50 [1] [µM] | ABTS Assay TEAC50 [1] | ABTS Assay TEAC100 [1] | FRAP Assay Trolox Equivalents [2] | FRAP Assay Antioxidant Capacity (%) at 100 uM [2] [%] | FRAP Assay Antioxidant Capacity (%) at 200 uM [2] [%] | solubility [3] [µM] | IC50 (SH-SY5Y cells [4]) [µM] | IC50 (HepG2 cells) [µM] | Reaction with H2O2 [6] | melting point [°C] | further results
O=C1CC(c2ccccc2)=Nc2cc(F)c(F)cc2N1 [Compound 9, 7,8-Difluoro-4-phenyl-1H-1,5-benzodiazepin-2(3H)-one] | 432 ± 68 | 0.36 | 0.18 | 0.43 | 21.9 | 37.1 | < 50 | > 250 | > 250 | did not show any significant reaction |  | LDH leakage (SH-SY5Y cells [5]): reduced LDH leakage to some degree
C[n+]1ccc(-c2ccccc2)cc1 [MPP^+, 1-Methyl-4-phenylpyridinium] |  |  |  |  |  |  |  |  |  |  |  | EC50 (SH-SY5Y cells [7]; MPP+ 48 h, read-out: concentration that resulted in 50% cell viability): 700 µM
O=C1CC(c2ccccc2)=Nc2cc(F)ccc2N1 [Compound 13, 7-Fluoro-4-phenyl-H-1,5-benzodiazepin-2(3H)-one] | 325 ± 55 | 0.36 | 0.19 | 0.79 | 40.7 | 61.6 | < 20 | > 250 | > 250 | did not show any significant reaction | 205.7 | 
OO [Compound H2O2, hydrogen peroxide, reference compound] |  |  |  |  |  |  |  |  |  |  |  | H2O2 lethal dose (LD50 / EC50), resazurin method (SH-SY5Y cells [8]): 268 µM; H2O2 lethal dose (LD50 / EC50) (SH-SY5Y cells [7]): 250 µM
COc1cc(C2=Nc3cc(F)c(F)cc3NC(=O)C2)cc(OC)c1OC [Compound 22, 7,8-Difluoro-4-(3,4,5-trimethoxyphenyl)-1H-1,5-benzodiazepin-2(3H)-one] | > 500 |  |  | 0.30 | 15.7 | 13.7 | < 100 | > 250 | > 250 |  | 241.8 | 
CN1C(=O)CC(c2ccccc2)=Nc2cc(F)c(F)cc21 [Compound 10, 7,8-Difluoro-1-methyl-4-phenyl-1H-1,5-benzodiazepin-2(3H)-one] | > 1000 |  |  | 0.01 | 0.3 | 0.6 | > 200 | 193 ± 15.9 | > 250 |  | 115.8 | 
O=C1CC(c2ccccc2)=Nc2c(F)cc(F)cc2N1 [Compound 17, 6,8-Difluoro-4-phenyl-1H-1,5-benzodiazepin-2(3H)-one] | > 1000 |  |  | 0.04 | 1.8 | 2.5 | < 50 | > 250 | > 250 |  | 221.5 | 
COc1cc(C2=Nc3ccccc3NC(=O)C2)cc(OC)c1OC [Compound 20, 4-(3,4,5-Trimethoxyphenyl)-1H-1,5-benzodiazepin-2(3H)-one] | 269 ± 27.2 | 0.34 | 0.18 | 0.90 | 48.1 | 63.8 | > 200 | > 250 | > 250 |  |  | LDH leakage (SH-SY5Y cells [5]): reduced LDH leakage to some degree; Neuroprotection, cell viability (MTT), 6-OHD model (SH-SY5Y cells [9]): significant neuroprotection; Neuroprotection, cell viability (MTT), MPP+ model (SH-SY5Y cells [10]): dose-dependent neuroprotection; Intracellular ROS level reduction (SH-SY5Y cells [11]): lower ROS decrease; MMP recovery (SH-SY5Y cells [12]): 10–25%; Neuroprotection effect, cell viability (MTT) (SH-SY5Y cells [13]): significantly improved
NCCc1cc(O)c(O)cc1O [Compound 6-OHD, 6-hydroxydopamine] |  |  |  |  |  |  |  |  |  |  |  | EC50 (SH-SY5Y cells [7]; Homo sapiens, SH-SY5Y, 6-OHD 48 h, read-out: concentration at which the cell viability was reduced by 50%): 250 µM
O=C1CC(c2ccccc2)=Nc2ccc(F)cc2N1 [Compound 11, 8-Fluoro-4-phenyl-1H-1,5-benzodiazepin-2(3H)-one] | 306 ± 34.6 | 0.35 | 0.17 | 0.56 | 28.9 | 49.8 | < 20 | > 250 | > 250 | did not show any significant reaction |  | Neuroprotection effect, cell viability (MTT) (SH-SY5Y cells [13]): high variable neuroprotection results at concentrations higher than 10 µM
